Experimental findings from BindingDB's records for doi:10.1016/j.ejmech.2014.01.032 (University of Milan, 2014) are described below.

This assay in a line: Inhibition of acetylcholinesterase in rat brain homogenate after 15 mins by Ellman assay. For orientation: In Ellman's method for cholinesterases, released thiocholine reacts with DTNB.

Broadly, the IC50 is the concentration that inhibits the measured activity by half. As for `C[N+](C)(CC#CCOC1=NOCC1)CCCCCC[N+]1(C)CCC(N2C(=O)c3cccc4cccc(c34)C2=O)CC1` (stereo unspecified), the IC50 came out at 22.9 µM.
The value for `C[N+](C)(CC#CCOC1=NOCC1)CCCCCCC[N+](C)(C)CCCN1C(=O)c2ccccc2C1=O` was 31.6 µM.
The compound `C[N+](C)(CC#CCOC1=NOCC1)CCCCCC[N+](C)(C)CCCN1C(=O)c2cccc3cccc(c23)C1=O` gave an IC50 of 10.2 µM.
Compound `C[N+](C)(CC#CCOC1=NOCC1)CCCCCCCC[N+](C)(C)CCCN1C(=O)c2cccc3cccc(c23)C1=O` gave an IC50 of 10 µM.
For the compound `C[N+](C)(CC#CCOC1=NOCC1)CCCCCCCC[N+](C)(C)CCCN1C(=O)c2ccccc2C1=O`, 19.5 µM corresponded to half-maximal inhibition (IC50). This IC50 is about 1.9-fold higher than that of the compound before.
The same measure for `CC(C)(CN1C(=O)c2cccc3cccc(c23)C1=O)C[N+](C)(C)CCCCCC[N+](C)(C)CCCN1C(=O)c2ccccc2C1=O` [Naphmethonium]: 41.7 µM.
